Laboratory results taken from PubChem BioAssay (NCI).
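Step 1: Grow cells in 96-well plates. Step 2: Expose to compound for 48 hours at 5 concentrations. Step 3: Interpolate endpoints linearly; if unreached, use highest concentration. TGI: total growth inhibition.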

Experiments:
Experiment in all cases: DTP human tumour cell line panel, 48 h
K-562 leukemia = tested on: K-562 leukemia
OVCAR-4 ovarian = tested on: OVCAR-4 ovarian
MALME-3M melanoma = tested on: MALME-3M melanoma
UACC-257 melanoma = tested on: UACC-257 melanoma
COLO 205 colon = tested on: COLO 205 colon
SK-MEL-2 melanoma = tested on: SK-MEL-2 melanoma
RPMI-8226 leukemia = tested on: RPMI-8226 leukemia
SF-295 CNS = tested on: SF-295 CNS
OVCAR-3 ovarian = tested on: OVCAR-3 ovarian
CAKI-1 renal = tested on: CAKI-1 renal
SF-539 CNS = tested on: SF-539 CNS
SW-620 colon = tested on: SW-620 colon
TK-10 renal = tested on: TK-10 renal
CCRF-CEM leukemia = tested on: CCRF-CEM leukemia
SK-MEL-28 melanoma = tested on: SK-MEL-28 melanoma
NCI-H23 lung = tested on: NCI-H23 lung
UO-31 renal = tested on: UO-31 renal
MCF7 breast = tested on: MCF7 breast
HS 578T breast = tested on: HS 578T breast
HCC-2998 colon = tested on: HCC-2998 colon
SN12C renal = tested on: SN12C renal
NCI/ADR-RES ovarian = tested on: NCI/ADR-RES ovarian
MDA-MB-231 breast = tested on: MDA-MB-231 breast
SF-268 CNS = tested on: SF-268 CNS
MDA-MB-435 = tested on: MDA-MB-435
OVCAR-8 ovarian = tested on: OVCAR-8 ovarian
IGROV1 ovarian = tested on: IGROV1 ovarian
MDA-N = tested on: MDA-N
MOLT-4 leukemia = tested on: MOLT-4 leukemia
HOP-92 NSCLC = tested on: HOP-92 NSCLC
EKVX NSCLC = tested on: EKVX NSCLC
HCT-15 colon = tested on: HCT-15 colon
NCI-H226 lung = tested on: NCI-H226 lung
SK-OV-3 ovarian = tested on: SK-OV-3 ovarian
SR leukemia = tested on: SR leukemia
OVCAR-5 ovarian = tested on: OVCAR-5 ovarian
DU-145 prostate = tested on: DU-145 prostate
A549 NSCLC = tested on: A549 NSCLC
SNB-19 CNS = tested on: SNB-19 CNS
NCI-H522 lung = tested on: NCI-H522 lung
SK-MEL-5 melanoma = tested on: SK-MEL-5 melanoma
LOX IMVI melanoma = tested on: LOX IMVI melanoma
BT-549 breast = tested on: BT-549 breast
786-0 renal = tested on: 786-0 renal
HCT-116 colon = tested on: HCT-116 colon
ACHN renal = tested on: ACHN renal
RXF 393 renal = tested on: RXF 393 renal
HL-60(TB) leukemia = tested on: HL-60(TB) leukemia
M14 melanoma = tested on: M14 melanoma
NCI-H460 lung = tested on: NCI-H460 lung
HOP-62 NSCLC = tested on: HOP-62 NSCLC
PC-3 prostate = tested on: PC-3 prostate
HT29 colon = tested on: HT29 colon
U251 CNS = tested on: U251 CNS
SNB-75 CNS = tested on: SNB-75 CNS
KM12 colon = tested on: KM12 colon
UACC-62 melanoma = tested on: UACC-62 melanoma
A498 renal = tested on: A498 renal

## O=C(O)CNC(=O)C(CSC(=O)OCC1c2ccccc2-c2ccccc21)NC(=O)CCC(NC(=O)OCC1c2ccccc2-c2ccccc21)C(=O)O (stereo not given)
K-562 leukemia
  TGI: 39.2 µM
OVCAR-4 ovarian
  TGI: 29.5 µM
MALME-3M melanoma
  TGI: 59.4 µM
UACC-257 melanoma
  TGI: > 100 µM
COLO 205 colon
  TGI: 31.1 µM
SK-MEL-2 melanoma
  TGI: > 100 µM
RPMI-8226 leukemia
  TGI: 46.4 µM
SF-295 CNS
  TGI: 30.5 µM
OVCAR-3 ovarian
  TGI: > 100 µM
CAKI-1 renal
  TGI: 15.7 µM
SF-539 CNS
  TGI: 30.6 µM
SW-620 colon
  TGI: 35.1 µM
TK-10 renal
  TGI: 56 µM
CCRF-CEM leukemia
  TGI: 41.2 µM
SK-MEL-28 melanoma
  TGI: > 100 µM
NCI-H23 lung
  TGI: > 100 µM
UO-31 renal
  TGI: 33 µM
MCF7 breast
  TGI: > 100 µM
HS 578T breast
  TGI: > 100 µM
HCC-2998 colon
  TGI: > 100 µM
SN12C renal
  TGI: 30.7 µM
NCI/ADR-RES ovarian
  TGI: 33.7 µM
MDA-MB-231 breast
  TGI: 31.9 µM
SF-268 CNS
  TGI: 33.1 µM
MDA-MB-435
  TGI: 34.1 µM
OVCAR-8 ovarian
  TGI: 32.4 µM
IGROV1 ovarian
  TGI: 26.8 µM
MDA-N
  TGI: 82.3 µM
MOLT-4 leukemia
  TGI: 45.4 µM
HOP-92 NSCLC
  TGI: 36.3 µM
EKVX NSCLC
  TGI: 32.2 µM
HCT-15 colon
  TGI: 64.8 µM
NCI-H226 lung
  TGI: > 100 µM
SK-OV-3 ovarian
  TGI: > 100 µM
SR leukemia
  TGI: 15.4 µM
OVCAR-5 ovarian
  TGI: > 100 µM
DU-145 prostate
  TGI: 28.6 µM
A549 NSCLC
  TGI: 28 µM
SNB-19 CNS
  TGI: > 100 µM
NCI-H522 lung
  TGI: 3.52 µM
SK-MEL-5 melanoma
  TGI: > 100 µM
LOX IMVI melanoma
  TGI: 0.577 µM
BT-549 breast
  TGI: > 100 µM
786-0 renal
  TGI: 9.13 µM
HCT-116 colon
  TGI: 32.6 µM
ACHN renal
  TGI: 32.8 µM
RXF 393 renal
  TGI: 34.7 µM
HL-60(TB) leukemia
  TGI: > 100 µM
M14 melanoma
  TGI: > 100 µM
NCI-H460 lung
  TGI: 34.2 µM
HOP-62 NSCLC
  TGI: 28.9 µM
PC-3 prostate
  TGI: 28.9 µM

## OCCN1c2ccccc2Sc2ccccc21
K-562 leukemia
  TGI: > 10 µM
OVCAR-4 ovarian
  TGI: > 10 µM
MALME-3M melanoma
  TGI: > 10 µM
UACC-257 melanoma
  TGI: > 10 µM
COLO 205 colon
  TGI: > 10 µM
RPMI-8226 leukemia
  TGI: > 10 µM
SF-295 CNS
  TGI: > 10 µM
OVCAR-3 ovarian
  TGI: > 10 µM
CAKI-1 renal
  TGI: > 10 µM
SF-539 CNS
  TGI: > 10 µM
SW-620 colon
  TGI: > 10 µM
TK-10 renal
  TGI: > 10 µM
SK-MEL-28 melanoma
  TGI: > 10 µM
NCI-H23 lung
  TGI: > 10 µM
MCF7 breast
  TGI: > 10 µM
HS 578T breast
  TGI: > 10 µM
HCC-2998 colon
  TGI: > 10 µM
SN12C renal
  TGI: > 10 µM
HT29 colon
  TGI: > 10 µM
NCI/ADR-RES ovarian
  TGI: > 10 µM
MDA-MB-231 breast
  TGI: > 10 µM
SF-268 CNS
  TGI: > 10 µM
MDA-MB-435
  TGI: > 10 µM
OVCAR-8 ovarian
  TGI: > 10 µM
MDA-N
  TGI: > 10 µM
U251 CNS
  TGI: > 10 µM
MOLT-4 leukemia
  TGI: > 10 µM
HOP-92 NSCLC
  TGI: > 10 µM
HCT-15 colon
  TGI: > 10 µM
SK-OV-3 ovarian
  TGI: > 10 µM
SR leukemia
  TGI: > 10 µM
OVCAR-5 ovarian
  TGI: > 10 µM
DU-145 prostate
  TGI: > 10 µM
SNB-75 CNS
  TGI: > 10 µM
A549 NSCLC
  TGI: > 10 µM
SNB-19 CNS
  TGI: > 10 µM
NCI-H522 lung
  TGI: > 10 µM
SK-MEL-5 melanoma
  TGI: > 10 µM
LOX IMVI melanoma
  TGI: > 10 µM
BT-549 breast
  TGI: > 10 µM
KM12 colon
  TGI: > 10 µM
786-0 renal
  TGI: > 10 µM
HCT-116 colon
  TGI: > 10 µM
ACHN renal
  TGI: > 10 µM
HL-60(TB) leukemia
  TGI: > 10 µM
M14 melanoma
  TGI: > 10 µM
HOP-62 NSCLC
  TGI: > 10 µM
PC-3 prostate
  TGI: > 10 µM

## CC(C)C(=O)OCC1CCCN2CCCCC12 (stereo not given)
K-562 leukemia
  TGI: > 100 µM
OVCAR-4 ovarian
  TGI: > 100 µM
MALME-3M melanoma
  TGI: > 100 µM
UACC-257 melanoma
  TGI: > 100 µM
COLO 205 colon
  TGI: > 100 µM
SK-MEL-2 melanoma
  TGI: > 100 µM
RPMI-8226 leukemia
  TGI: > 100 µM
SF-295 CNS
  TGI: > 100 µM
OVCAR-3 ovarian
  TGI: > 100 µM
CAKI-1 renal
  TGI: > 100 µM
SF-539 CNS
  TGI: > 100 µM
SW-620 colon
  TGI: > 100 µM
TK-10 renal
  TGI: > 100 µM
CCRF-CEM leukemia
  TGI: > 100 µM
SK-MEL-28 melanoma
  TGI: > 100 µM
NCI-H23 lung
  TGI: > 100 µM
UO-31 renal
  TGI: > 100 µM
MCF7 breast
  TGI: > 100 µM
HS 578T breast
  TGI: > 100 µM
HCC-2998 colon
  TGI: > 100 µM
SN12C renal
  TGI: > 100 µM
HT29 colon
  TGI: 97.6 µM
NCI/ADR-RES ovarian
  TGI: > 100 µM
MDA-MB-231 breast
  TGI: > 100 µM
SF-268 CNS
  TGI: > 100 µM
MDA-MB-435
  TGI: > 100 µM
OVCAR-8 ovarian
  TGI: > 100 µM
MDA-N
  TGI: > 100 µM
U251 CNS
  TGI: > 100 µM
MOLT-4 leukemia
  TGI: > 100 µM
HOP-92 NSCLC
  TGI: > 100 µM
EKVX NSCLC
  TGI: > 100 µM
HCT-15 colon
  TGI: > 100 µM
NCI-H226 lung
  TGI: > 100 µM
SK-OV-3 ovarian
  TGI: > 100 µM
UACC-62 melanoma
  TGI: > 100 µM
A498 renal
  TGI: > 100 µM
OVCAR-5 ovarian
  TGI: > 100 µM
DU-145 prostate
  TGI: > 100 µM
SNB-75 CNS
  TGI: > 100 µM
A549 NSCLC
  TGI: > 100 µM
SNB-19 CNS
  TGI: > 100 µM
SK-MEL-5 melanoma
  TGI: > 100 µM
LOX IMVI melanoma
  TGI: > 100 µM
BT-549 breast
  TGI: > 100 µM
KM12 colon
  TGI: > 100 µM
786-0 renal
  TGI: > 100 µM
HCT-116 colon
  TGI: > 100 µM
ACHN renal
  TGI: > 100 µM
RXF 393 renal
  TGI: > 100 µM
HL-60(TB) leukemia
  TGI: > 100 µM
M14 melanoma
  TGI: > 100 µM
NCI-H460 lung
  TGI: > 100 µM
HOP-62 NSCLC
  TGI: > 100 µM
PC-3 prostate
  TGI: > 100 µM
